In BindingDB's records for doi:10.1016/j.bioorg.2016.01.003 (Panjab University, 2016):

Assays:
Experiment in all cases: Radioligand Binding Assay
Adenosine receptor A2b = biological target: T1, Adenosine receptor A2b (Homo sapiens, UniProt P29275)
T1 sequence (P29275 whole entry): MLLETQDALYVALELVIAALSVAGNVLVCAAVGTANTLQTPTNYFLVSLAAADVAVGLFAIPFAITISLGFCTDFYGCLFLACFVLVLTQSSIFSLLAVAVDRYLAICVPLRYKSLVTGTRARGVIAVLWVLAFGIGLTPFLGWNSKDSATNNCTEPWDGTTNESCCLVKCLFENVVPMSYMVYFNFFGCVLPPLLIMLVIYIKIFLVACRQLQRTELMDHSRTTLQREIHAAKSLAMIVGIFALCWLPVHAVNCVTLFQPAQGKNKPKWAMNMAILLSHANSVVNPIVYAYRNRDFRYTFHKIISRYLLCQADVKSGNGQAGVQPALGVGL

Adenosine receptor A2a = Adenosine receptor A2a (Homo sapiens, UniProt P29274)
Adenosine receptor A2a, sequence (P29274 whole entry): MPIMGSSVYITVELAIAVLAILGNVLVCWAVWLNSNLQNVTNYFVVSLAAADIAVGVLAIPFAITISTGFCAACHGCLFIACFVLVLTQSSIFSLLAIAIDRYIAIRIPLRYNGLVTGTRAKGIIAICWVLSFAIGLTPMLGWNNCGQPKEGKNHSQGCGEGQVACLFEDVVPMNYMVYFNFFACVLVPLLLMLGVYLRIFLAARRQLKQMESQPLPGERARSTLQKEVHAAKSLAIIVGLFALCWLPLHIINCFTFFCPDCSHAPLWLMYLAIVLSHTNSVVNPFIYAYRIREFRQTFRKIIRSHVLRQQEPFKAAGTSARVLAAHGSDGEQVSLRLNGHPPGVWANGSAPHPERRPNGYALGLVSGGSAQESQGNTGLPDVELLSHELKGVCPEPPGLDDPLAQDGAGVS
Protocol: (§1) Dissociation constants at A1, A2A and A3 receptors (Ki-values) were determined in radioligand competition experiments as reported earlier [19,20]. All binding experiments were done in a microplate format utilizing a 96-well microplate filtration system (Millipore Multiscreen MAFC). As radioligands the agonists [3H]CCPA (1 nM) for A1, [3H]NECA (10 nM) for A2A, and [3H]HEMADO (1 nM) for A3 receptors were used. Samples were incubated with 10 µg of membrane protein for 3 h at 25 °C, filtered through the built-in filter at the bottom of the wells and washed three times with […] of ice-cold binding buffer. After addition of 20 µl of scintillator to the dried filter plates samples were counted in a Wallac Micro-Beta counter. Nonspecific binding was determined in the presence of 1 mM theophylline ([3H]CCPA) or […] (N6-phenylisopropyladenosine; [3H]NECA and [3H] HEMADO).

Adenosine receptor A1 = biological target: T2, Adenosine receptor A1 (Homo sapiens, UniProt P30542)
T2 sequence (P30542 whole entry): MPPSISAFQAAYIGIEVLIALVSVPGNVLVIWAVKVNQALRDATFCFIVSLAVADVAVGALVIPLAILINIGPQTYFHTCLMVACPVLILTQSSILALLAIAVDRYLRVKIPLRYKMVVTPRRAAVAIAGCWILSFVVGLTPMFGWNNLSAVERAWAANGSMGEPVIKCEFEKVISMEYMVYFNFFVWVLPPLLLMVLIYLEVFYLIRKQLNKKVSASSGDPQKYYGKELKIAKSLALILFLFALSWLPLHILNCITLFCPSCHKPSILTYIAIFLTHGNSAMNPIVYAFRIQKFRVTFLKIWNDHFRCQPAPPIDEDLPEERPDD
Protocol: as §1

Row | SMILES | Ki (Adenosine receptor A2b) | Ki (Adenosine receptor A2a) | Ki (Adenosine receptor A1)
1 | COC(=O)COc1cc(-c2nc3c([nH]2)c(=O)n(C)c(=O)n3C)ccc1OC [1,3-Dimethyl-8-[{3-(2-methoxy-2-oxoethoxy)-4-methoxy}-phenyl]xanthine (16, RB-410)] | > 10 µM | 0.717 µM | 11.8 µM
2 | COc1cc(-c2nc3c([nH]2)c(=O)n(C)c(=O)n3C)ccc1OCC(=O)NCCN(C)C [1,3-Dimethyl-8-[{4-(2-(dimethylaminoethylamino)-2-oxoethoxy)-3-methoxy}-phenyl]xanthine (15a, RB-386)] | 10 µM | 0.821 µM | 9.25 µM
3 | COc1cc(-c2nc3c([nH]2)c(=O)n(C)c(=O)n3C)ccc1OCC(=O)N1CCCCCC1 [1,3-Dimethyl-8-[{4-(2-(hexamethyleneimin-1-yl)-2-oxoethoxy)-3-methoxy}-phenyl]xanthine (15e, RB-387)] | 7.82 µM | 2.41 µM | > 10 µM
4 | COc1ccc(CCNC(=O)COc2ccc(-c3nc4c([nH]3)c(=O)n(C)c(=O)n4C)cc2OC)cc1OC [1,3-Dimethyl-8-[{4-(2-(homoveratrylamino)-2-oxoethoxy)-3-methoxy}-phenyl]-xanthine (15i, RB-389)] | > 30 µM | 0.843 µM | > 30 µM
5 | COc1cc(-c2nc3c([nH]2)c(=O)n(C)c(=O)n3C)ccc1OCC(=O)n1ccnc1 [1,3-Dimethyl-8-[{4-(2-(imidazol-1-yl)-2-oxoethoxy)-3-methoxy}-phenyl]xanthine (15h, RB-390)] | > 30 µM | 7.74 µM | > 30 µM
6 | COC(=O)COc1ccc(-c2nc3c([nH]2)c(=O)n(C)c(=O)n3C)cc1OC [1,3-Dimethyl-8-[{4-(2-methoxy-2-oxoethoxy)-3-methoxy}-phenyl]xanthine (15, RB-384)] | > 10 µM | 4.38 µM | > 30 µM
7 | CCN(CC)CCNC(=O)COc1cccc(-c2nc3c([nH]2)c(=O)n(C)c(=O)n3C)c1 [8-[3-{2-(Diethylaminoethylamino)-2-oxoethoxy}-phenyl]-1,3-dimethylxanthine (14b, RB-378)] | 4.91 µM | 0.179 µM | 1.22 µM
8 | CCN(CC)CCNC(=O)COc1ccc(-c2nc3c([nH]2)c(=O)n(C)c(=O)n3C)cc1 [8-[4-{2-(Diethylaminoethylamino)-2-oxoethoxy}-phenyl]-1,3-dimethylxanthine (13b, RB-421)] | 0.968 µM | 0.063 µM | 0.298 µM
9 | CCN(CC)CCNC(=O)COc1cc(-c2nc3c([nH]2)c(=O)n(C)c(=O)n3C)ccc1OC [8-[{3-(2-(Diethylaminoethylamino)-2-oxoethoxy)-4-methoxy}phenyl]-1,3-dimethylxanthine (16b, RB-411)] | 8.05 µM | 0.126 µM | 1.97 µM
10 | CCN(CC)CCNC(=O)COc1ccc(-c2nc3c([nH]2)c(=O)n(C)c(=O)n3C)cc1OC [8-[{4-(2-(Diethylaminoethylamino)-2-oxoethoxy)-3-methoxy}-phenyl]-1,3-dimethyl-xanthine (15b, RB-388)] | > 10 µM | 0.692 µM | > 10 µM
